US11351222B2, “Di-sulfide containing cell penetrating peptides and methods of making and using thereof” (Ohio State Innovation Foundation, priority 2016, dated 2022)
Bridge positions count the residues as written; N and C are the ends. Square brackets hold non-standard residues; d marks the D form. Ends that are not written are not given here. BMB = 3,5-bis(mercaptomethyl)benzoic acid scaffold; 2Nal = N[C@@H](Cc1ccc2ccccc2c1)C(=O)O

How the values were obtained:
HeLa cells = assay: Flow cytometry cellular uptake of FITC-labeled peptides; type: cell-based; conditions: for mean fluorescence intensity (MFI): 5 μM FITC-labeled peptide; for mean fluorescence intensity (MFI) / higher cell entry efficiency than cFΦR4: 2 h; for higher cell entry efficiency than cFΦR4: 5 μM
Protocol: HeLa cells were cultured in six-well plates (5×10^5 cells per well) for 24 h. On the day of experiment, the cells were incubated with 5 μM FITC-labeled peptide in clear DMEM with 1% FBS at 37° C. for 2 h. The cells were washed with DPBS, detached from plate with 0.25% trypsin, diluted into clear DMEM containing 10% FBS, pelleted at 250 g for 5 min, washed once with DPBS and resuspended in DPBS containing 1% bovine serum albumin, and analyzed on a BD LSR II flow cytometer. Data were analyzed with Flowjo software (Tree Star).
To monitor their cellular uptake, peptides 2 and 3 were labeled with fluorescein isothiocyanate (FITC) on the side chain of a C-terminal lysine. […] Thus, bicyclic peptides 2 and 3 entered HeLa cells with 72% and 36% higher efficiencies, respectively, than cFΦR4 (SEQ ID NO.:72).
Peptides 4 and 5 were labeled with FITC at the side chain of a lysine added to their C-termini and their cellular entry was assessed by flow cytometry. […] Briefly, in the presence of an anti-glutathione-S-transferase (GST) antibody labeled with a fluorescence donor (Tb) and streptavidin labeled with a fluorescence acceptor (d2), binding of GST-NEMO to a biotinylated IKKβ fragment (amino acids 701-745) (B. Gao, et al., Biochemistry 2014, 53, 677) results in a resonance energy transfer. Addition of a NEMO inhibitor blocks the NEMO-IKKβ interaction and reduces the HTRF signal. […] IKKβ contains a phenylalanine at the same position (Phe-734). […] Thus, the phenylalanine in peptide 4 likely plays dual roles of cellular entry and NEMO binding.

NEMO-IKKβ interaction = target: T1, NEMO-IKKβ interaction (Homo sapiens, UniProt Q9Y6K9); assay: HTRF assay of the NEMO-IKKβ interaction; type: binding; conditions: up to 100 μM peptide, 5 mM TCEP
T1 construct: transformed with a pGEX4T3-GST-NEMO(1-196) plasmid; made in house; host or cells: Escherichia coli BL21(DE3)
T1 sequence (Q9Y6K9 1-196): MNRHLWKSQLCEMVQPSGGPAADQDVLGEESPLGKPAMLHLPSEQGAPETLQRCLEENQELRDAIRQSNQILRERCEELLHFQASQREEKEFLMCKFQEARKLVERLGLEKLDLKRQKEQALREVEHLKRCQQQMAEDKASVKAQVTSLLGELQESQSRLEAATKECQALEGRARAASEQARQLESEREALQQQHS

[1] = test system: TNFα-induced activation of NF-κB in NF-κB reporter (Luc)-HEK293 cells; assay: NF-κB luciferase assay
Protocol: NF-κB reporter (Luc)-HEK293 cells were seeded in 96-well microplate in 45 μL of assay medium (DMEM, 10% FBS, and 1% penicillin/streptomycin, 1500 cells per well) and cultured overnight. Five μL of NEMO inhibitor in assay medium was added to cells and the cells were incubated for 2 h. Recombinant TNFα^3 in 5 μL of assay medium was added to the wells at the final concentration of 5 ng/mL. After 4 h of incubation, 55 μL of ONE-Step luciferase assay reagent was added to each well. Luminescence was measured after 10 min of incubation using a Tecan Infinite M1000 Pro microplate reader. Luciferase activities of TNFα unstimulated and stimulated cells were recorded as AU″ and AU^+, respectively. Luciferase activities of TNFα stimulated cells after incubating with different concentrations of NEMO inhibitors were recorded as AU^pep.
The ability of the bicyclic peptides to modulate the NEMO-IKK interaction inside the cell was assessed by monitoring the TNFα-induced activation of NF-κB.

mammalian cells = conditions: previously reported; cited from earlier work

Substance	mean fluorescence intensity (MFI) (HeLa cells)	higher cell entry efficiency than cFΦR4 (HeLa cells; relative to cFΦR4) [%]	MFI higher than that of cFΦR4 (HeLa cells; FITC-labeled peptide, relative to cFΦR4) [fold]	inhibition of the NEMO-IKKβ interaction (NEMO-IKKβ interaction)	effect on NF-κB signaling ([1]; at 20 μM)	inhibition of NF-κB signaling ([1]; highest concentration tested (40 μM)) [%]	cytosolic delivery efficiency (ratio of cytosolic over extracellular cargo concentration) (mammalian cells) [%]
2: bicyclic model peptide with CPP motif and mock cargo SASAS on BMB scaffold (cyclo(RRRR[2Nal]FCSASASCK); linker 7-13 via BMB (inferred)) [Peptide 2]	5180	72					
3: bicyclic model peptide with CPP motif and mock cargo SASAS on BMB scaffold (cyclo(SASASCF[2Nal]RRRRCK); linker 6-13 via BMB (inferred)) [Peptide 3]	4100	36					
5: control, similar to peptide 4 but two Ala residues in place of the two Trp residues (RRRR[2Nal]FCALDASALQC; linker 7-16 via BMB; not fully specified (C-terminus, bridges)) [Peptide 5]			2	only minor inhibition	no significant effect	~10	
Cyclo(FΦRRRRQ) [cFΦR4, reference compound]	3020						20
